Results taken from PMC10455339, “Combining the Peptide RWQWRWQWR and an Ethanolic Extract of Bidens pilosa Enhances the Activity against Sensitive and Resistant Candida albicans and C. auris Strains” (Journal of Fungi, 2023).
Ends that are not written are not given here.

Key:
C. albicans SC5314 = experiment: microbe, parasite or virus in culture; type: cell-based, Candida albicans; details: SC5314, 48 h
Method: For the determination of the MICs, the guidelines of the Clinical Laboratory Standards Institute (CLSI BMD-M27-A4) were used with some modifications. Serial dilutions were made, for peptides from 6.25 to 200 µg/mL and for extracts from 31.2 to 2000 µg/mL, with RPMI 1640 medium in a 96-well microdilution plate (100 µL), and then 100 µL of the adjusted inoculum (0.5–2.5 × 10^3 cells/mL) was added and incubated at 37 °C, and visual and spectrophotometric reading (595 nm) was performed at 48 h. Controls: growth control in RPMI or DMSO, control with a known antifungal: FLC, C. albicans SC5314 (1 µg/mL), C. albicans 256 (64 µg/mL), C. auris 435 (8 µg/mL), and C. auris 537 (128 µg/mL), sterility controls correspond to RPMI medium and SS. The MIC was defined as the minimum concentration of peptide or extract that inhibited 50% of growth compared to the control. To determine the minimal fungicidal concentration (MFC), from the concentrations where no growth was observed, including the controls, a subculture was made on SDA and incubated for 24 h at 37 °C. The MFC was defined as the minimum concentration of peptide or extract that eliminated 100% of the growth compared to the control (n = 3).

[1] = system: primary culture of human foreskin fibroblasts; type: cell-based; details: 2 h
Method: The toxicity of the ethanolic extract of B. pilosa, the palindromic peptide, and their combinations was evaluated in a primary culture of human foreskin fibroblasts by the MTT (tetrazolium salt, Sigma-Aldrich) assay, with modifications. Briefly, cells were seeded in 96-well plates at a density of 1 × 10^4 cells and 100 μL per well and allowed to adhere and proliferate for 24 h RPMI medium at 37 °C and 5% CO2.
Following this, the complete medium was replaced with incomplete medium (without 10% fetal bovine serum) for an additional 24 h in order to achieve synchronization. The cells were then incubated at 37 °C and 5% CO2 for 2 h with 100 μL of B. pilosa extract (31.25–2000 µg/mL), peptide at the concentrations evaluated (3.12–200 μg/mL), and additive or synergistic combinations (C 1: 25/250 µg/mL, C 2: 50/62.5 µg/mL, C 3: 100/125 µg/mL, and C 4: 25/31.25 µg/mL). The culture medium was removed, and 100 μL of incomplete medium with 10% MTT was added and incubated at 37 °C and 5% CO2 for 4 h. […] Following a 30 min incubation at 37 °C, the absorbance at 575 nm was measured, using the BioTek ELx800 absorbance reader (Agilent, Santa Clara, USA). […] In addition, the half-maximal inhibitory concentration (IC50) was calculated by plotting viability versus log (concentration).

human red blood cells = experiment: Hemolytic activity assay; type: cell-based; details: positive control, Tween-20 (20% v/v) in PBS
Method: The hemolytic activity of the ethanolic extract of B. pilosa, palindromic peptide, and their combinations was analyzed on human red blood cells. Briefly, 5 mL of peripheral blood from a healthy individual was collected in an EDTA tube and centrifuged at 2500 rpm for 7 min. The erythrocyte-rich fraction was suspended in PBS and washed twice by centrifugation. Then, 100 µL of the B. pilosa extracts (15.62–2000 µg/mL), palindromic peptide (1.56–200 µg/mL), or additive or synergistic combinations of peptide and plant extract (combination 1: 25/250 µg/mL, combination 2: 50/62.5 µg/mL, combination 3: 100/125 µg/mL, and combination 4: 25/31.25 µg/mL) was mixed with 100 µL of erythrocytes (2% hematocrit) in round-bottom 96-well plates and incubated at 37 °C for 2 h. Subsequently, the reaction was stopped by centrifuging for 10 min at 2500 rpm. To measure hemoglobin levels, 100 µL of the supernatant containing the hemoglobin released from lysed erythrocytes was transferred to a 96-well plate with a flat bottom, and the absorbance was measured at 450 nm. PBS was used as a negative control, while Tween-20 (20% v/v) in PBS was used as a positive control (n = 3).

MIC (C. albicans SC5314)	Substance	IC50 [1]	Hemolysis (in words) (human red blood cells)
67 µM	RWQWRWQWR-NH2 [Peptide R-1-R]	175.9 µg/mL	–
–	Tween-20	–	completely lysed the red blood cells
